Measured values reported in patent publication US10758585B2, “Beautyberry total glycosides extract and preparation method and use thereof” (Suzhou Neupharma Co., Ltd., priority 2012, dated 2020).

System: SH-SY5Y nerve cells
Assay: Protective effect against MPP+ induced SH-SY5Y nerve cell injury (MTT cell viability)
Type: cell-based
Conditions: 500 μM MPP+; for protective effect against MPP+ induced SH-SY5Y nerve cell injury: 24 h pre-protection + 24 h co-incubation, MTT, overall statement
Method: SH-SY5Y nerve cells were purchased from ATTC (American Type Culture Collection, Rockville, Md., U.S.A). The cells was cultured with RPMI1640 medium (a product of Hyclone Company) containing 10% fetal bovine serum, 2 mM/L glutamine, as well as 1% penicillium and streptomycin doubleantibiotics, in the incubator at 37° C. and 5% CO2.
The extract tested was the beautyberry total glycosides extract prepared in Example 5 which contained 37.75 wt % verbascoside and 28.01 wt % Arenarioside. The beautyberry total glycosides extract prepared in Example 5, and stock solutions of verbascoside and Arenarioside prepared in 2.1 above were dissolved and formulated respectively with phosphate buffer (PBS) and the resulted solutions were diluted to test concentrations with RPMI 1640 culture medium. MPP+ solution was prepared by dissolving MPP+ to 1 mM with PBS. The test concentration of MPP+ was 500 μM diluted with the culture medium. MTT was formulated with PBS, at a concentration of 0.5 mg/ml, and was filtered to remove bacteria using a 0.22 μm filter membrane prior to use.
SH-SY5Y nerve cells at a logarithmic growth phase were collected and counted with a cell counter. 200 μl of cell suspension with 4×10^4/ml was added into each well of the 96-well plate (converted to 8×10^3/200 μl of the culture medium) and was subjected to adherent culture in the incubator at 37° C. and 5% CO2 for 24 hours. The experiment included 11 groups: (1) a blank control group, wherein RPMI 1640 culture medium was used, and incubation at 5% CO2 and 37° C. was performed for 24 h; (2) a model group, wherein RPMI 1640 culture medium containing 500 μM MPP+ was used, and incubation at 5% CO2 and 37° C. was performed for 24 h; (3) a high dose group (16 μg/mL), a medium dose group (1.6 μg/mL), and a low dose group (0.16 μg/mL) (equivalent to 10 μM, 1 μM, and 0.1 μM verbascoside, respectively) of tests of the extract of Example 5 in the present invention; (4) a high dose group (10 μM), amedium dose group (1 μM), and a low dose group (0.1 μM) of theverbascoside monomer prepared above; and (5) a high dose group (10 μM), a medium dose group (1 μM), and a low dose group (0.1 μM) of the Arenarioside monomer prepared above; wherein, in each experimental dosage groups of (3), (4), and (5), mother liquid of the drug to be tested was firstly diluted to a set dosage concentration with the RPMI 1640 culture medium, then added at 100 μL into the cells, which were pre-protected at 5% CO2 and 37° C. for 24 h, then supernatant was carefully pipetted and discarded, then, mother liquid of the drug to be tested was diluted to a set dosage concentration with the RPMI 1640 culture medium containing 500 μM MPP+ that was formulated beforehand, then added at 100 μL into the cells, which were proceeded to incubation at 5% CO2 and 37° C. for 24 h. Supernatant was carefully pipetted and discarded, placed upside-down on an absorbent paper and patted dry. After the blank group and themodel group were incubated for 24 h, operations were performed using the same method. 5 parallel wells were provided for each group of the samples. MTT at a concentration of 0.5 mg/ml was added into each well of each group above, and incubated at 5% CO2 and 37° C. for 4 h. Supernatant was carefully pipetted and discarded, placed upside-down on an absorbent paper and patted dry. 200 μL of dimethyl sulfoxide (DMSO) was added into each well, and shaken for 300 s. The absorbance value of each well was determined at OD 570 nm, and cell viability was calculated according to the following formula: […]

SMILES | cell viability compared with the model group (0.1 μM monomer) | cell viability compared with the model group (1 μM monomer) | protective effect against MPP+ induced SH-SY5Y nerve cell injury
CC1O[C@@H](O[C@@H]2C(O)[C@H](OCCc3ccc(O)c(O)c3)OC(CO[C@@H]3OC[C@@H](O)[C@@H](O)C3O)[C@@H]2OC(=O)/C=C/c2ccc(O)c(O)c2)C(O)[C@@H](O)[C@H]1O (stereo partly drawn) [Arenarioside] | significant higher cell viability as compared with the model group (p<0.01) | significant higher cell viability as compared with the model group (p<0.01) | has a protective effect
C[C@@H]1O[C@@H](O[C@@H]2[C@@H](O)[C@H](OCCc3ccc(O)c(O)c3)O[C@H](CO)[C@H]2OC(=O)/C=C/c2ccc(O)c(O)c2)[C@H](O)[C@H](O)[C@H]1O [verbascoside] | significant difference compared to the model group (p<0.01) | significant difference compared to the model group (p<0.01) | has a protective effect
